Columns and labels:
[1] = system: Na+/K+-ATPase (Adenosine 5′-Triphosphatase isolated from porcine cerebral cortex); assay: Na+/K+-ATPase inhibitory activity, colorimetric Adenosine 5'-Triphosphatase Enzymatic Assay; assay type: biochemical
Method: The inhibitory effect of a compound of the invention on ATPase activity was assessed in vitro using the colorimetric Adenosine 5′-Triphosphatase Enzymatic Assay of Sigma (St. Louis, Mo.) according to the manufacturer's instructions. This assay utilizes Adenosine 5′-Triphosphatase isolated from porcine cerebral cortex. Each reaction was performed in a final volume of 250 μl using 0.5 units/ml enzyme in the presence of different inhibitors. […] IC50 values were determined using the Origin® program software (OriginLab, Northampton, Mass.).

A549 (Lung) = assay: SRB assay, A549; assay type: cell-based, human
Method: (§1) SRB assays were performed according to standard National Cancer Institute Guidelines. Briefly, human tumor cells from different cancer panels were seeded into 96 well plates in 100 μL (plating densities ranging from 5-40,000 cells/well depending on the doubling time of individual cell lines) in serum-containing media for twenty-four hours prior to the addition of the compounds to be assayed. After 24 hours, one plate of each cell line was fixed in situ with trichloroacetic acid (TCA). The fixed slides were used to determine the cell population for each cell line at the time of drug addition (Tz). Each compound to be tested was solubilized in DMSO and the desired concentration was then added to the medium and diluted serially 1:10 to provide a total of five or ten drug concentrations plus control (in a final volume of 200 μL). The starting dose before any dilution was 100 uM for all compounds.
(§2) Following drug addition, each culture was incubated for forty-eight hours. The assay was terminated with the addition of cold TCA. The supernatant was discarded, and the plates were washed with tap water and air dried. Sulforhodamine B (SRB) solution was then added to each well. After staining, the bound stain was solubilized and the absorbance was read on an automated plate reader at a wavelength of 515 nm.
(§3) Using the absorbance measurements [time zero, (Tz), control growth, (C), and test growth in the presence of drug at the ten concentration levels (Ti)], the percentage growth was calculated at each of the drug concentrations levels. Percentage growth inhibition was calculated as:
(§4) [(Ti−Tz)/(C−Tz)]×100 for concentrations for which Ti>/=Tz
(§5) [(Ti−Tz)/Tz]×100 for concentrations for which Ti<Tz.
(§6) Three dose response parameters were calculated for each experimental agent. Growth inhibition of 50% (GI50) was calculated from [(Ti−Tz)/(C−Tz)]×100=50, which was the drug concentration resulting in a 50% reduction in the net protein increase (as measured by SRB staining) in control cells during the drug. The drug concentration resulting in total growth inhibition (TGI) was calculated from Ti=Tz. The LC50 (concentration of drug resulting in a 50% reduction in the measured protein at the end of the drug treatment as compared to that at the beginning) indicating a net loss of cells following treatment was calculated from [(Ti−Tz)/Tz]×100=−50.
(§7) Values were calculated for each of these three parameters when the level of activity was reached; however, if the effect was not reached or was exceeded, the value for that parameter was expressed as greater or less than the maximum or minimum concentration tested.
(§8) Table 4 summarizes results characterizing the effects of compound Nos. 120, 12, 61, 1, and 56 on GI50, which measures the cell growth inhibitory power of the compound, TGI, which measures cytostatic effect (TGI) and LC50, which signifies cytotoxic effect. Each of these parameters in Table 4 was calculated in a sulforhodamine B (SRB) assay, which provides a colorimetric measure of a compound's anti-cancer activity. SRB assays were performed with compounds of the invention in 22 different cell lines (shaded in light gray in Table 4), which represent nine different tumor panels (lung, melanoma, ovary, prostate, CNS, breast, pancreas colon and renal). Ouabain and digoxin were used as controls. Paclitaxel was added as a non-Na^+K^+-ATPase inhibitor control.

ERVK (Lung) = assay: SRB assay, ERVK; assay type: cell-based, human; settings: 48 h
Method: as §1, §2, §3, §4, §5, §6, §7, §8

SKMEL28 (Melanoma) = assay: SRB assay, SKMEL28; assay type: cell-based, human
Method: as §1, §2, §3, §4, §5, §6, §7, §8

MB435 (Melanoma) = assay: SRB assay, MB435; assay type: cell-based, human; settings: 48 h
Method: as §1, §2, §3, §4, §5, §6, §7, §8

OVCAR5 (Ovary) = assay: SRB assay, OVCAR5; assay type: cell-based, human
Method: as §1, §2, §3, §4, §5, §6, §7, §8

OVCAR3 (Ovary) = assay: SRB assay, OVCAR3; assay type: cell-based, human
Method: as §1, §2, §3, §4, §5, §6, §7, §8

ADRRES (Ovary) = assay: SRB assay, ADRRES (multidrug resistant NCI-ADR-RES); assay type: cell-based, human
Method: NCI-ADR-RES cells have been classified as ovarian cancer cells by the National Cancer Institute.
as §1, §2, §3, §4, §5, §6, §7, §8
Table 4 also presents results with Compound Nos. 120, 12, 61, 1, and 56 in a well characterized drug resistant cell line, NCI-ADR-RES, that expresses high levels of MDR1 and P-glycoprotein.

DU145 (Prostate) = assay: SRB assay, DU145; assay type: cell-based, human
Method: as §1, §2, §3, §4, §5, §6, §7, §8

PCJ (Prostate) = assay: SRB assay, PCJ; assay type: cell-based; settings: Homo sapiens, 48 h
Method: as §1, §2, §3, §4, §5, §6, §7, §8

SF268 (CNS) = assay: SRB assay, SF268; assay type: cell-based; settings: Homo sapiens
Method: as §1, §2, §3, §4, §5, §6, §7, §8

HCT116 (Colon) = assay: SRB assay, HCT116; assay type: cell-based; settings: Homo sapiens
Method: as §1, §2, §3, §4, §5, §6, §7, §8

CAKJ1 (Renal) = assay: SRB assay, CAKJ1; assay type: cell-based, human; settings: 48 h
Method: as §1, §2, §3, §4, §5, §6, §7, §8

## C[C@]12CCC(=NOC3CCNC3)C=C1CCC1C2CC[C@]2(C)C(=O)CCC12 (stereo partly drawn) [Compound 61, (10R,13S)-10,13-dimethyl-3-(pyrrolidin-3-yloxyimino)-2,3,7,8,9,10,11,12,13,14,15,16-dodecahydro-1H-cyclopenta[a]phenanthren-17(6H)-one]
[1]
  Na+K+ ATPase inhibitory activity (in words): strong Na+K+ ATPase inhibitory activities
[1]; 0.5 units/ml enzyme, five concentrations 10^−5 to 10^−9M, read-out: Na+ K+ Inhibitory Activity (IC50)
  IC50: 496 nM
A549 (Lung); A549, SRB, 48 h
  TGI: 514.9 nM
A549 (Lung); Homo sapiens, A549, 48 h, read-out: LC50
  CC50: 823 nM
A549 (Lung); Homo sapiens, A549, SRB, 48 h
  GI50: 207 nM
ERVK (Lung); ERVK, SRB
  TGI: 2471 nM
ERVK (Lung); Homo sapiens, read-out: LC50
  CC50: 6840 nM
ERVK (Lung); Homo sapiens, ERVK, SRB
  GI50: 493 nM
SKMEL28 (Melanoma); Homo sapiens, SK-MEL-28, 48 h, read-out: LC50
  CC50: 12300 nM
SKMEL28 (Melanoma); Homo sapiens, SK-MEL-28, SKMEL28, SRB, 48 h
  GI50: 993 nM
SKMEL28 (Melanoma); SKMEL28, SRB, 48 h
  TGI: 6623 nM
MB435 (Melanoma); Homo sapiens, read-out: LC50
  CC50: 8200 nM
MB435 (Melanoma); Homo sapiens, MB435, SRB
  GI50: 649 nM
MB435 (Melanoma); MB435, SRB
  TGI: 3378.4 nM
OVCAR5 (Ovary); Homo sapiens, OVCAR-5, 48 h, read-out: LC50
  CC50: 9060 nM
OVCAR5 (Ovary); Homo sapiens, OVCAR-5, OVCAR5, SRB, 48 h
  GI50: 3850 nM
OVCAR5 (Ovary); OVCAR5, SRB, 48 h
  TGI: 6454.9 nM
OVCAR3 (Ovary); Homo sapiens, OVCAR-3, 48 h, read-out: LC50
  CC50: 6120 nM
OVCAR3 (Ovary); Homo sapiens, OVCAR-3, OVCAR3, SRB, 48 h
  GI50: 355 nM
OVCAR3 (Ovary); OVCAR3, SRB, 48 h
  TGI: 800.4 nM
ADRRES (Ovary); ADRRES, SRB, 48 h
  TGI: 1015.6 nM
ADRRES (Ovary); Homo sapiens, NCI/ADR-RES, 48 h, read-out: LC50
  CC50: 6070 nM
ADRRES (Ovary); Homo sapiens, NCI/ADR-RES, ADRRES, SRB, 48 h
  GI50: 564 nM
ADRRES (Ovary); SRB, cells express high levels of MDR1 and P-glycoprotein
  anti-tumor action in multidrug resistant cell line NCI-ADR-RES: potent anti-tumor action
DU145 (Prostate); DU145, SRB, 48 h
  TGI: 626.2 nM
DU145 (Prostate); Homo sapiens, DU-145, 48 h, read-out: LC50
  CC50: 895 nM
DU145 (Prostate); Homo sapiens, DU-145, DU145, SRB, 48 h
  GI50: 357 nM
PCJ (Prostate); read-out: LC50
  CC50: 7420 nM
PCJ (Prostate); PCJ, SRB
  GI50: 281 nM
  IC (TGI): 1810 nM
SF268 (CNS); SF-268, 48 h, read-out: LC50
  CC50: 8030 nM
SF268 (CNS); SF-268, SF268, SRB, 48 h, read-out: GI50
  GI50: 567 nM
SF268 (CNS); SF-268, SF268, SRB, 48 h, read-out: TGI
  IC (TGI): 3020 nM
HCT116 (Colon); HCT-116, 48 h, read-out: LC50
  CC50: 9260 nM
HCT116 (Colon); HCT-116, HCT116, SRB, 48 h
  GI50: 286 nM
  IC (TGI): 1310 nM
CAKJ1 (Renal); CAKJ1, SRB
  TGI: 1251.6 nM
CAKJ1 (Renal); Homo sapiens, read-out: LC50
  CC50: 6650 nM
CAKJ1 (Renal); Homo sapiens, CAKJ1, SRB
  GI50: 268 nM
